Experimental data as given in US11267802B2 (BEBETTER MED INC., priority 2015, dated 2022).

Key:
H1975 = experiment: Inhibition assay on tumor cell proliferation (CellTiter-Glo), H1975; format: cell-based, Human; conditions: Homo sapiens, NCI-H1975; H1975 (L858R and T790M EGFR double mutation), 72 hours, 10% bovine serum
HCC827 = experiment: Inhibition assay on tumor cell proliferation (CellTiter-Glo), HCC827; format: cell-based; conditions: Homo sapiens; HCC827 (ex19del), 72 hours, 10% bovine serum
Protocol: (§1) By using a CellTiter-Glo luminescence cell viability test kit (Promega, # G7572), the content of adenosine triphosphate (ATP) was determined to assess the cell viability.
(§2) Human colon cancer cell line LOVO and human non-small-cell lung cancer H358 express wild-type EGFR. Human non-small-cell lung cancer cell line HCC827 carries deletion mutation in exon 19 (ex19del). Those cell lines are purchased from Shanghai Fudan IBS Cell Resource Center and American Tissue Culture Collection (ATCC).
(§3) The assay procedure is as follows. The cells in a cell culture plate were digested with a pancreatic enzyme, re-suspended in a DPBS culture medium, and had the cell density counted by Scepter automated cytometer (Millipore # PHCC00000). The cells were diluted to a solution of 44,000 cells per ml. The cell solution with adjusted density was added to the cell assay plate at 90 microliters per well. The plate was placed in an incubator with 5% CO2 at 37° C. for 24 hours of incubation, and then added with different concentrations of subject compounds. The cells were incubated for 72 hours with the compounds in presence of 10% bovine serum. The content of ATP was determined by a CellTiter-Glo® Luminescent Cell Viability Assay kit (see the manufacturer's instruction for details) to evaluate cell-growth inhibition.
(§4) Briefly, 30 μl of CellTiter-Glo® reagent was added to each well, and then shaken for 10 minutes to induce cell lysis. The fluorescent signal was detected and recorded by Fluoroskan Ascent FL (Thermo). The max signal value was obtained from the cells treated by dimethyl sulfoxide for 72 hours. The min signal value was obtained from the medium alone (the number of the cells was 0). Inhibitory rate %=(max signal value−compound signal value)/(max signal value−min signal value)×100. The data was processed by GraphPad Prism V5.0 software (GraphPad Software, San Diego, Calif.). Sigmoidal dose-response curve fitting was performed to calculate the IC50 value.

LOVO = experiment: Inhibition assay on tumor cell proliferation (CellTiter-Glo), LOVO; format: cell-based, Human; conditions: Homo sapiens; LOVO (wild-type EGFR), 72 hours, 10% bovine serum
Protocol: as §1, §2, §3, §4

H358 = experiment: Inhibition assay on tumor cell proliferation (CellTiter-Glo), H358; format: cell-based, Human; conditions: Homo sapiens, NCI-H358; H358 (wild-type EGFR), 72 hours, 10% bovine serum
Outline: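 Viability from ATP content by CellTiter-Glo luminescence; inhibition normalised to DMSO (max) and medium-only (min) wells, IC50 by sigmoidal dose-response fitting. LOVO and H358 carry wild-type EGFR; HCC827 has exon 19 deletion.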

EGFR T790M/L858R = molecular target: T1, EGFR T790M/L858R (Homo sapiens, UniProt P00533, L858R/T790M); experiment: Mutant EGFR T790M/L858R activity inhibition assay (Caliper mobility shift); format: biochemical; conditions: read-out: enzyme activity inhibition (IC50) EGFR T790M/L858R
T1 construct: purchased Invitrogen PR8911A
T1 sequence (P00533 25-1210 T790M/L858R): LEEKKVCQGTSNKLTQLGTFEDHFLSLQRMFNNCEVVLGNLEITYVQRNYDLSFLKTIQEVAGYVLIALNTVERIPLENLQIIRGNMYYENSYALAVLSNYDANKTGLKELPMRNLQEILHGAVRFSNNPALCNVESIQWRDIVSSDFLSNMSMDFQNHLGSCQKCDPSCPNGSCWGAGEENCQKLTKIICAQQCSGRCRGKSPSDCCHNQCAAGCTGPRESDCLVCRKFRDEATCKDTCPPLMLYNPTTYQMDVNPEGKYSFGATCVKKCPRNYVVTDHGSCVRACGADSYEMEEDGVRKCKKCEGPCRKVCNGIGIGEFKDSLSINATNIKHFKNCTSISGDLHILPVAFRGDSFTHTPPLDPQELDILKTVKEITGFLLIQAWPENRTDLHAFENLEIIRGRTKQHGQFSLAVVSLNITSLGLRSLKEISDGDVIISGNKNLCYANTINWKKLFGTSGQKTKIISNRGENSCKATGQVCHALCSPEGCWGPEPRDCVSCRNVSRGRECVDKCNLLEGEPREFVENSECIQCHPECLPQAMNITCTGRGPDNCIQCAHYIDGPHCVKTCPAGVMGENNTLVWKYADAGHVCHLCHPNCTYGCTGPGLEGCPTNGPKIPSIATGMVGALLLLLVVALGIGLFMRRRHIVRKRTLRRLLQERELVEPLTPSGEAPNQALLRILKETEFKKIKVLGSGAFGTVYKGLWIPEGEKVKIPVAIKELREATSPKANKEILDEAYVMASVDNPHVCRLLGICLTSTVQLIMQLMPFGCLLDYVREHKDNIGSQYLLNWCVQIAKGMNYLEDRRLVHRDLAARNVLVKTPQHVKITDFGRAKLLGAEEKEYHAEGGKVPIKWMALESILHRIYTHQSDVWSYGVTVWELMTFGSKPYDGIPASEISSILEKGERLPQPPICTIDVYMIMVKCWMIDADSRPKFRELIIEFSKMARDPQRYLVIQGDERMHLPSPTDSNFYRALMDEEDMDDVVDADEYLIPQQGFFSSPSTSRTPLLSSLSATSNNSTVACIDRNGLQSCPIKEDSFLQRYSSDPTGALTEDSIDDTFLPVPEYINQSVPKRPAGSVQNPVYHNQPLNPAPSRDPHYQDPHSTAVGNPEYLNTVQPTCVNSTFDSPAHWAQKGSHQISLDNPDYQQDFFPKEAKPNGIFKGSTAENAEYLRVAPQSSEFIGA
Outline: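 Compound added in 10% DMSO at 5-fold final concentration; substrate conversion read by Caliper mobility shift. Inhibition = (max−conversion)/(max−min)×100, with max from DMSO no-compound wells and min from no-enzyme wells; IC50 from fitted concentration–response curve.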

H1975 xenograft tumor [1] = experiment: Potency assay of tumor model, 16 consecutive days; format: in vivo, Balb/C nude mice; conditions: oral; for inhibition of growth of H1975 xenograft tumor (in words): 30 mg/kg qd, 16 days
Protocol: (§5) Balb/C nude mice were purchased from Beijing Vital River Laboratory Animal Technology Co., Ltd., and housed in SPF animal room. The human non-small-cell lung cancer cell line H1975 in a culture dish was collected by trypsin-EDTA (0.25% trypsin, 1 mM EDTA), and then washed with a serum-free PBS solution. Lastly, the cells were implanted after diluted in a serum-free medium. Only the single cell suspension with a survival rate over 90% (Trypan blue rejection) can be used for injection. 5 million cells suspended in a 0.1 ml serum-free culture were injected into the front right flanking subcutaneous region of each mouse by using a 1 ml syringe and a 25G syringe needle, and the blood vessel was carefully avoided. The tumor size was measured in about one week after implantation. A caliper rule was used to measure the tumor size. The tumor volume was calculated by the following formula: tumor volume=(length×width^2)/2.
This experiment studied the inhibition of tumor growth in H1975 xenograft tumor model by the compounds 20, 50, 91, and 118. When the mean volume of H1975 tumor reached about 260 mm^3, the animals were divided into 5 oral administration groups, that is, excipient control group and groups of oral administration of compound 20, compound 50, compound 91, and compound 118, respectively (n=8/group). These compounds were dissolved in 30% sulfobutylated beta-cyclodextrin (SBE-β-CD) and 1N HCl (pH 3-4). […]

[2] = Pharmacokinetics in rats after oral administration; format: in vivo, SD rats; conditions: for AUC(0-inf) / Cmax / Tmax / half-life / AUC(0-t): male, SD, rat, 20 mg/kg, plasma; for AUC(0-t): read-out: AUC0-24
Protocol: (§6) Male SD rats weighing 250-300 g, or male beagles weighing 9-10 kg, were fasted overnight before the experiment. The object compounds were dissolved in 30% sulfobutylated beta-cyclodextrin (SBE-β-CD), and orally administrated to the rats at a dose of 20 mg/kg or to the beagles at a dose of 5 mg/kg. Blood samples were taken at 15 minutes, 30 minutes, 1 hour, 2 hours, 3 hours, 4 hours, 6 hours, 8 hours and 24 hours after administration. 0.3 ml of blood was collected at every time point, placed in a centrifuge tube containing K2-EDTA (ethylenediamine tetraacetic acid dipotassium) and centrifuged (2,000 g, 10 minutes, 4° C.) to collect plasma, which was then stored in an ultra cold storage freezer at −80° C. 50 μL of plasma sample was mixed with 5 μL of internal standard (IS), and then extracted with ethyl acetate. After vacuum drying, the residue was re-dissolved in acetonitrile. The sample was filtered and injected into LC-MS/MS for analysis.

[3] = Pharmacokinetics in beagles after oral administration; format: in vivo; conditions: male, beagle, dog, 5 mg/kg, plasma
Protocol: as §6

H1975 xenograft tumor [4] = experiment: Potency assay of tumor model, dose-effect relationship, 22 consecutive days; format: in vivo, Balb/C nude mice; conditions: for Tumor inhibition T/C value (%) / Weight change (%): po, qd
Protocol: as §5
Further assay was performed to assess the dose-effect relationship of the inhibition of H1975 transplantation tumor growth by the compounds 51 and 91. […] These compounds were dissolved in 30% sulfobutylated beta-cyclodextrin (SBE-β-CD) and 1N HCl (pH 3-4), respectively. […]

SMILES	IC50 (H1975) [nM]	IC50 (LOVO) [nM]	IC50 (H358) [nM]	IC50 (EGFR T790M/L858R) [nM]	melting point [°C]	inhibition of growth of H1975 xenograft tumor (in words) (H1975 xenograft tumor [1])	also measured
C=CC(=O)Nc1cccc(Nc2nc(Nc3ccc(N4CCN(C(C)=O)CC4)cc3OC)ncc2C(F)(F)F)c1 [CO-1686, Rociletinib, reference compound]	10 to 50	> 1000	100 to 1000	–	–	–	IC50 (HCC827): 100 to 1000 nM
COc1cc(N(C)CCN(C)C)c(NC(=O)/C=C/CN(C)C)cc1Nc1nccc(-n2ccc3ccccc32)n1 [Compound 69, (E)-N-(5-((4-(1H-indol-1-yl)pyrimidin-2-yl)amino)-2-((2-(dimethylamino)ethyl)(methyl)amino)-4-methoxyphenyl)-4-(dimethylamino)but-2-enamide]	50 to 100	100 to 1000	100 to 1000	< 1	116.2 to 118.1	–	–
C=CC(=O)Nc1cc(Nc2nccc(-n3ccc4ccccc43)n2)c(OC)cc1N1CC[C@H](N(C)C)C1 [Compound 78, (S)—N-(5-((4-(1H-indol-1-yl)pyrimidin-2-yl)amino)-2-(3-(dimethylamino)pyrrolidin-1-yl)-4-methoxyphenyl)acrylamide]	10 to 50	> 1000	> 1000	1 to 10	161 to 162	–	–
C=CC(=O)Nc1cc(Nc2nccc(-n3ccc4cc(F)ccc43)n2)c(OC)cc1N(C)CCN(C)C [Compound 28, N-(2-((2-(dimethylamino)ethyl)(methyl)amino)-5-((4-(5-fluoro-1H-indol-1-yl)pyrimidin-2-yl)amino)-4-methoxyphenyl)acrylamide]	< 10	> 1000	100 to 1000	< 1	168 to 170	–	–
C=CC(=O)Nc1cc(Nc2nccc(-n3ccc4cc(OCCO)ccc43)n2)c(OC)cc1N(C)CCN(C)C [Compound 37, N-(2-((2-(dimethylamino)ethyl)(methyl)amino)-5-((4-(5-(2-hydroxyethoxy)-1H-indol-1-yl)pyrimidin-2-yl)amino)-4-methoxyphenyl)acrylamide]	< 10	> 1000	100 to 1000	< 1	65 to 67	–	–
C=CC(=O)Nc1cc(Nc2ncc(OC)c(-n3c(=O)n(C)c4ccccc43)n2)c(OC)cc1N(C)CCN(C)C [Compound 57, N-(2-((2-(dimethylamino)ethyl) (methyl)amino)-4-methoxy-5-((5-methoxy-4-(3-methyl-2-oxo-2,3-dihydro-1H-benzo[d]imidazol-1-yl)pyrimidin-2-yl)amino)phenyl)acrylamide]	10 to 50	> 1000	> 1000	1 to 10	168 to 172	–	–

Continued, in another order:

IC50 (H1975) [nM]	IC50 (LOVO) [nM]	IC50 (H358) [nM]	IC50 (EGFR T790M/L858R) [nM]	melting point [°C]	SMILES	inhibition of growth of H1975 xenograft tumor (in words) (H1975 xenograft tumor [1])	also measured
< 10	–	100 to 1000	< 1	208 to 210	C=CC(=O)Nc1cc(Nc2nccc(-n3c(=O)n(C)c4ccccc43)n2)c(C)cc1N(C)CCN(C)C [Compound 118, N-(2-((2-(dimethylamino)ethyl) (methyl)amino)-4-methyl-5-((4-(3-methyl-2-oxo-2,3-dihydro-1H-benzo[d]imidazol-1-yl)pyrimidin-2-yl)amino)phenyl)acrylamide]	tumor regression	–
< 10	> 1000	100 to 1000	< 1	67 to 68	C=CC(=O)Nc1cc(Nc2nccc(-n3ccc4cc(CO)ccc43)n2)c(OC)cc1N(C)CCN(C)C [Compound 39, N-(2-((2-(dimethylamino)ethyl)(methyl)amino)-5-((4-(5-(hydroxymethyl)-1H-indol-1-yl)pyrimidin-2-yl)amino)-4-methoxyphenyl)acrylamide]	–	IC50 (HCC827): < 10 nM
< 10	–	100 to 1000	< 1	208 to 210	C=CC(=O)Nc1cc(Nc2nccc(-n3c(=O)n(C)c4cc(F)ccc43)n2)c(OC)cc1N(C)CCN(C)C [Compound 50, N-(2-((2-(dimethylamino)ethyl)(methyl)amino)-5-((4-(5-fluoro-3-methyl-2-oxo-2,3-dihydro-1H-benzo[d]imidazol-1-yl)pyrimidin-2-yl)amino)-4-methoxyphenyl)acrylamide]	tumor regression	absorption / blood exposure after oral administration (in words) [2]: well absorbed, with high blood exposure; AUC(0-inf) [2]: 598 ng·h/mL; Cmax [2]: 173 ng/mL; Tmax [2]: 1 h; half-life [2]: 186 min; AUC(0-t) [2]: 561 ng·h/mL; AUC(0-inf) [3]: 1470 ng·h/mL; Cmax [3]: 428 ng/mL; Tmax [3]: 1 h; half-life [3]: 87 min; AUC(0-t) ([3]; read-out: AUC0-24): 1420 ng·h/mL; T/C value (H1975 xenograft tumor [1]; 30 mg/kg qd as printed, 16 days after administration): −97%; Tumor inhibition T/C value (%) (H1975 xenograft tumor [4]; 10 mg/kg, 22 consecutive days): −65%; Weight change (%) (H1975 xenograft tumor [4]; 10 mg/kg, 22 consecutive days): 0.0%; Tumor inhibition T/C value (%) (H1975 xenograft tumor [4]; 20 mg/kg, 22 consecutive days): −95%; Weight change (%) (H1975 xenograft tumor [4]; 20 mg/kg, 22 consecutive days): −2.0%; Tumor inhibition T/C value (%) (H1975 xenograft tumor [4]; 40 mg/kg, 22 consecutive days): −100%; Weight change (%) (H1975 xenograft tumor [4]; 40 mg/kg, 22 consecutive days): −4.4%; tumor outcome (in words) (H1975 xenograft tumor [4]; high dose (40 mg/kg), 22 consecutive days): the tumor disappeared completely; dose dependence of inhibition of H1975 xenograft tumor growth (in words) (H1975 xenograft tumor [4]; oral, 10, 20 and 40 mg/kg): dose dependently inhibited
< 10	–	100 to 1000	< 1	–	C=CC(=O)Nc1cc(Nc2nccc(-n3ccc4nc(OC)ccc43)n2)c(OC)cc1N(C)CCN(C)C [Compound 20, N-(2-((2-(dimethylamino)ethyl)(methyl)amino)-4-methoxy-5-((4-(5-methoxy-1H-pyrrolo[3,2-b]pyridin-1-yl)pyrimidin-2-yl)amino)phenyl)acrylamide]	tumor regression	absorption / blood exposure after oral administration (in words) [2]: well absorbed, with high blood exposure; AUC(0-inf) [2]: 1450 ng·h/mL; Cmax [2]: 350 ng/mL; Tmax [2]: 1.67 h; half-life [2]: 222 min; AUC(0-t) [2]: 1440 ng·h/mL
